The experiment addresses T1, Nucleoporin p54 (NUP54) (Homo sapiens, UniProt Q7Z3B4).
T1 construct: endogenous in cells; host or cells: MCF7
Description: In situ competitive profiling in live MCF7 cells (LFQ): NUP54. The class given is cell-based. The following applies: protein NUP54, 4 h, then 10 µM 24c, n=4. From the text: In our efforts to determine the direct molecular targets of deoxyelephantopin we first performed a gel-based competitive in situ proteomic profiling assay[41] […] While the greater conformational flexibility of probe 24c could potentially lead to more promiscuous target engagement relatively to deoxyelephantopin, it was favoured based on the fact that an alkyne moiety appended to the rigid scaffold of deoxyelephantopin may hinder some of its interactions. MCF7 cells were pretreated with various concentrations of deoxyelephantopin for 4 h, harvested, lysed and the lysates were treated with the fluorogenic probe 24c-Cy3 (10 μM; Supplementary Fig. 10). […] Furthermore, cells were pretreated with 20 μM concentration of deoxyelephantopin or 24c and the proteomic profiles were compared (Fig. 6b, Supplementary Fig. 11). Multiple bands were detected that were equally competed by both DEP and 24c, thus again confirming that 24c can be used as an acceptable clickable analogue of deoxyelephantopin in pulldown assays. Having established the optimal labelling conditions by SDS–PAGE, we next carried out a mass spectrometry-based competitive profiling assay[42] coupled with the method of stable isotope labelling of amino acids in culture (SILAC)[43]. […]
Figure 6 Proteome-wide identification of deoxyelephantopin targets. […] Quantification was performed using label-free quantification (LFQ) method (n=4). […]

T1 sequence (Q7Z3B4 whole entry): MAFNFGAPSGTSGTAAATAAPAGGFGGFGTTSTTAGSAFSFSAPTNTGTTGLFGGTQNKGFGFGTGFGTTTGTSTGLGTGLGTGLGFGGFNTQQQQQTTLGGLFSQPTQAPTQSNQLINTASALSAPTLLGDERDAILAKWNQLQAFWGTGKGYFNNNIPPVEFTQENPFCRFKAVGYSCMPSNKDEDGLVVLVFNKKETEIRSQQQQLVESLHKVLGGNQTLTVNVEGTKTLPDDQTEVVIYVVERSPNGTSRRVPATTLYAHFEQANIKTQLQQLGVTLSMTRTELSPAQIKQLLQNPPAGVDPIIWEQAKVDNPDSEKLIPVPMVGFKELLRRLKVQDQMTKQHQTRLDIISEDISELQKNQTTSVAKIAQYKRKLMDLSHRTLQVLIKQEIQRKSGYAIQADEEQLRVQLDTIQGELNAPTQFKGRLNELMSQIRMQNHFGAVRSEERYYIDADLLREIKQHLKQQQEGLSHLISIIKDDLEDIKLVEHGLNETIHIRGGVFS

Take `C=C(C)C(=O)O[C@H]1CC2=C[C@@H](C/C(C)=C/[C@H]3OC(=O)C(=C)[C@H]13)OC2=O` [deoxyelephantopin]: the “LFQ ratio 20 µM Deoxyelephantopin/DMSO with 24c” value is recorded as 0.24.

The record behind these values is publication PMC4992173, “Divergent synthesis and identification of the cellular targets of deoxyelephantopins” (Nature Communications, 2016).
